Data: US20250340552A1, “COMPOUNDS, COMPOSITIONS AND METHODS OF TREATING DISORDERS” (HOTSPOT THERAPEUTICS, INC., priority 2022, published 2025)
Like-named read-outs stand apart in the source and are kept apart here.

Molecular target: T1, Cbl-B (Homo sapiens, UniProt Q13191)
T1 construct: MSD-Based Assay for Degradation of Cbl-B in THP-1 Cells; endogenous in cells; host or cells: THP-1 (title) / Jurkat (protocol text)
Assay: MSD-based assay for degradation of Cbl-B in THP-1 cells
Type: cell-based
In short: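 Reported Dmax bins are A >70%, B 50–70%, C 30–50% and D <30%, from an electrochemiluminescence (MSD) sandwich assay of Cbl-B in cell lysates. THP-1 cells were exposed to compounds for 24 hours before lysis.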

[1] = Cbl-B degradation, Jurkat cells seeded (heading: THP-1 cells), 24 hours incubation, MSD readout
[2] = Cbl-B degradation, Jurkat cells seeded (heading: THP-1 cells), 24 hours incubation, MSD readout, read-out: Dmax

T1 sequence (Q13191 whole entry): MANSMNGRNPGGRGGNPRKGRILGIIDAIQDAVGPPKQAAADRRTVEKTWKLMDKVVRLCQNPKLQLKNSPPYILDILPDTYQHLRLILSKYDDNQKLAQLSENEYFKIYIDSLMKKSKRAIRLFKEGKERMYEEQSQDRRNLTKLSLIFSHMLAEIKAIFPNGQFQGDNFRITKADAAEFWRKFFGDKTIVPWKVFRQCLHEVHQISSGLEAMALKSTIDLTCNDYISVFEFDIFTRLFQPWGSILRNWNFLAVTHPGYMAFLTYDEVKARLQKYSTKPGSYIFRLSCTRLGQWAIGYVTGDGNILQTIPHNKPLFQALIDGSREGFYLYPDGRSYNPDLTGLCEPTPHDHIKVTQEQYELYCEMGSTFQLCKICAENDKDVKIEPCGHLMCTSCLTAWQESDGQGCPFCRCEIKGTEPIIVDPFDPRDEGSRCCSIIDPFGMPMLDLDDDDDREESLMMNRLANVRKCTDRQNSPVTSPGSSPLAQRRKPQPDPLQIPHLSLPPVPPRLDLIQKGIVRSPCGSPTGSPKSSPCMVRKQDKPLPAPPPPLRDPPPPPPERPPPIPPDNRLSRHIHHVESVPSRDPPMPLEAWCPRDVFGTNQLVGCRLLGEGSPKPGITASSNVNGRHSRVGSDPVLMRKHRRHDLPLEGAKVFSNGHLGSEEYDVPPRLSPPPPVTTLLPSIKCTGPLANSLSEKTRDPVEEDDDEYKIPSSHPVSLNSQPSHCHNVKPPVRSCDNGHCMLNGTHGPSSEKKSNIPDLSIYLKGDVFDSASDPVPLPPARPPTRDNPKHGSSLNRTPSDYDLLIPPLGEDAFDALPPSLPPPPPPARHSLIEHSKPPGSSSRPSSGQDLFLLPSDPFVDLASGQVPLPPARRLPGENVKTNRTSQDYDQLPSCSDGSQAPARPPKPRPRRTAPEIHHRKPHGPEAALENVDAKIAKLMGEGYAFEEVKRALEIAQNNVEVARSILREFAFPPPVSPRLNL

| SMILES | DC50 [1] | Dmax [2] | Dmax (THP-1) |
| --- | --- | --- | --- |
| CN(CCN(C)C(=O)c1ccc(C2CCN(c3ccc4c(c3)CN([C@H]3CCC(=O)NC3=O)C4=O)CC2)cc1)Cc1cc(C(F)(F)F)c2cn(-c3cccc([C@H](c4nncn4C)C4CCC4)c3)c(=O)n2c1 (single isomer, unassigned) [Compound 212] | > 10000 nM | < 30% | – |
| Cn1cnnc1[C@@H](c1cccc(-n2cc3c(C(F)(F)F)cc(CN4CCC(OCc5ccc(C6CCN(c7ccc8c(c7)CN([C@@H]7CCC(=O)NC7=O)C8=O)CC6)cc5)CC4)cn3c2=O)c1)C1CCC1 (single isomer, unassigned) [Compound 213] | > 10000 nM | < 30% | – |
| Cn1cnnc1[C@@H](c1cccc(-n2cc3c(C(F)(F)F)cc(CN4CCC(OCc5ccc(C6CCN(c7ccc8c(c7)CN([C@H]7CCC(=O)NC7=O)C8=O)CC6)cc5)CC4)cn3c2=O)c1)C1CCC1 (single isomer, unassigned) [Compound 214] | 30 to 300 nM | 30 to 50% | – |
| Cn1cnnc1[C@@H](c1cccc(-n2cc3c(C(F)(F)F)cc(CN4CCC(OCc5ccc(CC6CCN(c7ccc8c(c7)CN([C@@H]7CCC(=O)NC7=O)C8=O)CC6)cc5)CC4)cn3c2=O)c1)C1CCC1 (single isomer, unassigned) [Compound 217] | 300 to 1000 nM | 30 to 50% | – |
| Cn1cnnc1[C@@H](c1cccc(-n2cc3c(C(F)(F)F)cc(CN4CCC(OCc5ccc(CC6CCN(c7ccc8c(c7)CN([C@H]7CCC(=O)NC7=O)C8=O)CC6)cc5)CC4)cn3c2=O)c1)C1CCC1 (single isomer, unassigned) [Compound 218] | < 30 nM | > 70% | – |
| Cn1cnnc1CC1(c2cccc(-n3cc4c(C(F)(F)F)cc(CN5CCC(OCCOCc6ccc(CN7CCN(c8ccc9c(c8)CN([C@@H]8CCC(=O)NC8=O)C9=O)CC7)cc6)CC5)cn4c3=O)c2)COC1 (single isomer, unassigned) [Compound 219] | 30 to 300 nM | 50 to 70% | – |
| Cn1cnnc1CC1(c2cccc(-n3cc4c(C(F)(F)F)cc(CN5CCC(OCCOCc6ccc(CN7CCN(c8ccc9c(c8)CN([C@H]8CCC(=O)NC8=O)C9=O)CC7)cc6)CC5)cn4c3=O)c2)COC1 (single isomer, unassigned) [Compound 220] | < 30 nM | > 70% | – |
| Cn1cnnc1[C@@H](c1cccc(-n2cc3c(C(F)(F)F)cc(CN4CCC(O[C@@H]5CCCN(C(=O)c6ccc(N7CCN(c8ccc9c(c8)CN([C@@H]8CCC(=O)NC8=O)C9=O)CC7)cc6)C5)CC4)cn3c2=O)c1)C1CCC1 (single isomer, unassigned) [Compound 225] | 1000 to 10000 nM | 30 to 50% | – |
| Cn1cnnc1[C@@H](c1cccc(-n2cc3c(C(F)(F)F)cc(CN4CCC(O[C@@H]5CCCN(C(=O)c6ccc(N7CCN(c8ccc9c(c8)CN([C@H]8CCC(=O)NC8=O)C9=O)CC7)cc6)C5)CC4)cn3c2=O)c1)C1CCC1 (single isomer, unassigned) [Compound 226] | 30 to 300 nM | > 70% | – |
| Cn1cnnc1[C@@H](c1cccc(-n2cc3c(C(F)(F)F)cc(CN4CCN(CCc5ccc(C6CCN(c7ccc8c(c7)CN([C@H]7CCC(=O)NC7=O)C8=O)CC6)cc5)CC4)cn3c2=O)c1)C1CCC1 (single isomer, unassigned) [Compound 228] | < 30 nM | > 70% | – |
| CO[C@H]1C[C@](c2cccc(-n3cc4c(C(F)(F)F)cc(CN5CCC(OCc6ccc(CN7CCN(c8ccc9c(c8)CN([C@@H]8CCC(=O)NC8=O)C9=O)CC7)cc6)CC5)cn4c3=O)c2)(c2nncn2C)C1 (single isomer, unassigned) [Compound 231] | 300 to 1000 nM | 30 to 50% | – |
| CO[C@H]1C[C@](c2cccc(-n3cc4c(C(F)(F)F)cc(CN5CCC(OCc6ccc(CN7CCN(c8ccc9c(c8)CN([C@H]8CCC(=O)NC8=O)C9=O)CC7)cc6)CC5)cn4c3=O)c2)(c2nncn2C)C1 (single isomer, unassigned) [Compound 232] | < 30 nM | > 70% | – |
| Cn1cnnc1[C@@H](c1cccc(-n2cc3c(C(F)(F)F)cc(CN4CCC[C@@H](COCc5ccc(CN6CCN(c7ccc8c(c7)CN([C@H]7CCC(=O)NC7=O)C8=O)CC6)cc5)C4)cn3c2=O)c1)C1CCC1 (single isomer, unassigned) [Compound 234] | – | – | > 70% |
| Cn1cnnc1CC1(c2cccc(-n3cc4c(C(F)(F)F)cc(CN5CCC[C@@H](OCCc6ccc(CN7CCN(c8ccc9c(c8)CN([C@@H]8CCC(=O)NC8=O)C9=O)CC7)cc6)C5)cn4c3=O)c2)COC1 (single isomer, unassigned) [Compound 239] | 30 to 300 nM | 50 to 70% | – |
| Cn1cnnc1CC1(c2cccc(-n3cc4c(C(F)(F)F)cc(CN5CCC[C@@H](OCCc6ccc(CN7CCN(c8ccc9c(c8)CN([C@H]8CCC(=O)NC8=O)C9=O)CC7)cc6)C5)cn4c3=O)c2)COC1 (single isomer, unassigned) [Compound 240] | < 30 nM | > 70% | – |
| Cn1cnnc1CC1(c2cccc(-n3cc4c(C(F)(F)F)cc(CN5CCC(OCc6ccc(C(=O)N7CCN(c8ccc9c(c8)CN([C@@H]8CCC(=O)NC8=O)C9=O)CC7)cc6)CC5)cn4c3=O)c2)COC1 (single isomer, unassigned) [Compound 243] | 30 to 300 nM | > 70% | – |

| SMILES | DC50 [1] | Dmax [2] | Dmax (THP-1) |
| --- | --- | --- | --- |
| Cn1cnnc1CC1(c2cccc(-n3cc4c(C(F)(F)F)cc(CN5CCC(OCc6ccc(C(=O)N7CCN(c8ccc9c(c8)CN([C@H]8CCC(=O)NC8=O)C9=O)CC7)cc6)CC5)cn4c3=O)c2)COC1 (single isomer, unassigned) [Compound 244] | < 30 nM | > 70% | – |
| CN(C(=O)c1ccc(CN2CCN(c3ccc4c(c3)CN([C@@H]3CCC(=O)NC3=O)C4=O)CC2)cc1)C1CCN(Cc2cc(C(F)(F)F)c3cn(-c4cccc(C5(Cc6nncn6C)COC5)c4)c(=O)n3c2)CC1 (single isomer, unassigned) [Compound 245] | 300 to 1000 nM | 30 to 50% | – |
| CN(C(=O)c1ccc(CN2CCN(c3ccc4c(c3)CN([C@H]3CCC(=O)NC3=O)C4=O)CC2)cc1)C1CCN(Cc2cc(C(F)(F)F)c3cn(-c4cccc(C5(Cc6nncn6C)COC5)c4)c(=O)n3c2)CC1 (single isomer, unassigned) [Compound 246] | < 30 nM | > 70% | – |
| Cn1cnnc1[C@@H](c1cccc(-n2cc3c(C(F)(F)F)cc(CN4CCC(O[C@H]5CCCN(C(=O)c6ccc(N7CCN(c8ccc9c(c8)CN([C@@H]8CCC(=O)NC8=O)C9=O)CC7)cc6)C5)CC4)cn3c2=O)c1)C1CCC1 (single isomer, unassigned) [Compound 247] | 300 to 1000 nM | 30 to 50% | – |
| Cn1cnnc1[C@@H](c1cccc(-n2cc3c(C(F)(F)F)cc(CN4CCC(O[C@H]5CCCN(C(=O)c6ccc(N7CCN(c8ccc9c(c8)CN([C@H]8CCC(=O)NC8=O)C9=O)CC7)cc6)C5)CC4)cn3c2=O)c1)C1CCC1 (single isomer, unassigned) [Compound 248] | < 30 nM | > 70% | – |
| Cn1cnnc1CC1(c2cccc(-n3cc4c(C(F)(F)F)cc(CN5CCC(OCc6ccc(N7CCN(c8ccc9c(c8)CN([C@@H]8CCC(=O)NC8=O)C9=O)CC7)cc6)CC5)cn4c3=O)c2)COC1 (single isomer, unassigned) [Compound 249] | 30 to 300 nM | 30 to 50% | – |
| Cn1cnnc1CC1(c2cccc(-n3cc4c(C(F)(F)F)cc(CN5CCC(OCc6ccc(N7CCN(c8ccc9c(c8)CN([C@H]8CCC(=O)NC8=O)C9=O)CC7)cc6)CC5)cn4c3=O)c2)COC1 (single isomer, unassigned) [Compound 250] | < 30 nM | 50 to 70% | – |
| Cn1cnnc1[C@@H](c1cccc(-n2cc3c(C(F)(F)F)cc(CN4CCC(OC(=O)N5CCC(CC6CCN(c7ccc8c(c7)CN([C@@H]7CCC(=O)NC7=O)C8=O)CC6)CC5)CC4)cn3c2=O)c1)C1CCC1 (single isomer, unassigned) [Compound 253] | 30 to 300 nM | 50 to 70% | – |
| Cn1cnnc1[C@@H](c1cccc(-n2cc3c(C(F)(F)F)cc(CN4CCC(OC(=O)N5CCC(CC6CCN(c7ccc8c(c7)CN([C@H]7CCC(=O)NC7=O)C8=O)CC6)CC5)CC4)cn3c2=O)c1)C1CCC1 (single isomer, unassigned) [Compound 254] | < 30 nM | > 70% | – |
| Cn1cnnc1CC1(c2cccc(-n3cc4c(C(F)(F)F)cc(CN5CCC(CC(=O)N6CCC(CC7CCN(c8ccc9c(c8)CN([C@@H]8CCC(=O)NC8=O)C9=O)CC7)CC6)CC5)cn4c3=O)c2)COC1 (single isomer, unassigned) [Compound 257] | 30 to 300 nM | – | 50 to 70% |
| Cn1cnnc1CC1(c2cccc(-n3cc4c(C(F)(F)F)cc(CN5CCC(CC(=O)N6CCC(CC7CCN(c8ccc9c(c8)CN([C@H]8CCC(=O)NC8=O)C9=O)CC7)CC6)CC5)cn4c3=O)c2)COC1 (single isomer, unassigned) [Compound 258] | < 30 nM | – | > 70% |
| Cn1cnnc1CC1(c2cccc(-n3cc4c(C(F)(F)F)cc(CN5CCC(CCN6CCC(CC7CCN(c8ccc9c(c8)CN([C@@H]8CCC(=O)NC8=O)C9=O)CC7)CC6)CC5)cn4c3=O)c2)COC1 (single isomer, unassigned) [Compound 259] | 30 to 300 nM | 50 to 70% | – |
| Cn1cnnc1CC1(c2cccc(-n3cc4c(C(F)(F)F)cc(CN5CCC[C@@H](OC6CCN(C(=O)c7ccc(N8CCN(c9ccc%10c(c9)CN([C@@H]9CCC(=O)NC9=O)C%10=O)CC8)cc7)CC6)C5)cn4c3=O)c2)COC1 (single isomer, unassigned) [Compound 263] | < 30 nM | > 70% | – |
| Cn1cnnc1CC1(c2cccc(-n3cc4c(C(F)(F)F)cc(CN5CCC[C@@H](OC6CCN(C(=O)c7ccc(N8CCN(c9ccc%10c(c9)CN([C@H]9CCC(=O)NC9=O)C%10=O)CC8)cc7)CC6)C5)cn4c3=O)c2)COC1 (single isomer, unassigned) [Compound 264] | < 30 nM | > 70% | – |
| Cn1cnnc1CC1(c2cccc(-n3cc4c(C(F)(F)F)cc(CNCCOCCOCCNc5cccc6c5C(=O)N(C5CCC(=O)NC5=O)C6=O)cn4c3=O)c2)COC1 (stereo not shown) [Compound 1] | > 10000 nM | < 30% | – |
